Results taken from paper PMC10655120, “Highly efficient synergistic activity of an α-L-arabinofuranosidase for degradation of arabinoxylan in barley/wheat” (Frontiers in Microbiology, 2023).

Biological target: T1, TtAbf62 (Thermothelomyces thermophilus, UniProt G2QJQ6)
T1 construct: gene MYCTH_55982; GH62; 321 residues with signal peptide MRPTRPGIVLLATATSVAG (1-19), replaced by alpha-factor signal (strain alpha-ABF); codon-optimized, secreted by Pichia pastoris X-33 (pPICZalphaA); N-glycosylated, 45-60 kDa (35 kDa deglycosylated); no purification described
T1 sequence (G2QJQ6 20-321): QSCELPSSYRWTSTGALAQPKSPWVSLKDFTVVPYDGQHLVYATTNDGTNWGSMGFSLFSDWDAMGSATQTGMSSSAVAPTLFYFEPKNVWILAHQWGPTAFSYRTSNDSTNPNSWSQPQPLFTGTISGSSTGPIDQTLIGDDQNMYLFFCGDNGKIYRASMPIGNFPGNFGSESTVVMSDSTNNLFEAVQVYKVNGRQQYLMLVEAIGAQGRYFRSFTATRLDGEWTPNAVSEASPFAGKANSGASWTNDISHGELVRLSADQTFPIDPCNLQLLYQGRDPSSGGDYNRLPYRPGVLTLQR
Assay: HPLC of released arabinose
Assay type: biochemical
Details: 5 mg/mL substrate, 7.7 U/mL secreted enzyme, 50 mM sodium acetate pH 5.0, 60 °C, 1 h

SMILES | HPLC of released arabinose
OC[C@@H]1O[C@@H](O[C@H]2[C@H](O[C@@H]3CO[C@@H](O[C@@H]4COC(O)[C@H](O)[C@H]4O)[C@H](O)[C@H]3O)OC[C@@H](O)[C@@H]2O)[C@H](O)[C@H]1O (stereo partly drawn) [A^2XX, 2^3-α-L-arabinofuranosyl-xylotriose] | able to release arabinose from single-arabinofuranosyl arabinoxylo-oligosaccharides substrates (A^3X, A^2XX, and XA^3XX)
OC[C@@H]1O[C@@H](O[C@@H]2[C@@H](O)[C@H](O[C@@H]3COC(O)[C@H](O)[C@H]3O)OC[C@H]2O)[C@H](O)[C@H]1O (stereo partly drawn) [A^3X, 3^2-α-L-arabinofuranosyl-xylobiose] | able to release arabinose from single-arabinofuranosyl arabinoxylo-oligosaccharides substrates (A^3X, A^2XX, and XA^3XX)
